Assay results taken from ChEMBL document CHEMBL1201862, “PubChem BioAssay data set” (2004).
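Test compounds were applied to cells in 96-well plates for 48 hours at 5 doses. The concentration for 50% growth inhibition is given as GI50.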 Activity calls are given as the source filed them. Rule as the data show it: active = GI50 up to about 1.1 µM and inactive = higher.

Assays:
Test in all cases: NCI anticancer screen, dose series, 48 h
U-251 = tested on: U-251
NCI/ADR-RES = tested on: NCI/ADR-RES
Malme-3M = tested on: Malme-3M
SK-MEL-28 = tested on: SK-MEL-28
SK-OV-3 = tested on: SK-OV-3
HOP-62 = tested on: HOP-62
NCI-H460 = tested on: NCI-H460
HT-29 = tested on: HT-29
COLO 205 = tested on: COLO 205
SNB-19 = tested on: SNB-19
MDA-MB-231 = tested on: MDA-MB-231
MDA-N = tested on: MDA-N
HCC 2998 = tested on: HCC 2998
SF-539 = tested on: SF-539
SNB-75 = tested on: SNB-75
A549 = tested on: A549
HL-60 = tested on: HL-60
DU-145 = tested on: DU-145
M14 = tested on: M14
RPMI-8226 = tested on: RPMI-8226
SR = tested on: SR
OVCAR-8 = tested on: OVCAR-8
UO-31 = tested on: UO-31
UACC-257 = tested on: UACC-257
OVCAR-5 = tested on: OVCAR-5
SK-MEL-5 = tested on: SK-MEL-5
NCI-H23 = tested on: NCI-H23
T47D = tested on: T47D
BT-549 = tested on: BT-549
HCT-15 = tested on: HCT-15
ACHN = tested on: ACHN
IGROV-1 = tested on: IGROV-1
HOP-92 = tested on: HOP-92
A498 = tested on: A498
EKVX = tested on: EKVX
SF-268 = tested on: SF-268
OVCAR-3 = tested on: OVCAR-3
Hs-578T = tested on: Hs-578T
CCRF-CEM = tested on: CCRF-CEM
PC-3 = tested on: PC-3
KM12 = tested on: KM12
CAKI-1 = tested on: CAKI-1
MOLT-4 = tested on: MOLT-4
TK-10 = tested on: TK-10
MCF7 = tested on: MCF7
LOX IMVI = tested on: LOX IMVI
HCT-116 = tested on: HCT-116
SN12C = tested on: SN12C
SF-295 = tested on: SF-295
MDA-MB-435 = tested on: MDA-MB-435
SW-620 = tested on: SW-620
786-0 = tested on: 786-0
NCI-H522 = tested on: NCI-H522
SK-MEL-2 = tested on: SK-MEL-2
UACC-62 = tested on: UACC-62
K562 = tested on: K562
NCI-H226 = tested on: NCI-H226
OVCAR-4 = tested on: OVCAR-4
RXF 393 = tested on: RXF 393

Measured: GI50

S=C1N(c2ccc(Cl)cc2)C2=C(/N=N/c3ccccc3)C(=Nc3ccccc3S2)N1c1ccccn1
active: T47D 0.075 µM | IGROV-1 0.164 µM | A498 < 0.01 µM | MCF7 0.167 µM
inactive: U-251 11 µM | NCI/ADR-RES 15.5 µM | Malme-3M 2.78 µM | SK-MEL-28 15.4 µM | SK-OV-3 17.8 µM | HOP-62 19.4 µM | NCI-H460 11 µM | HT-29 17.1 µM | COLO 205 12.6 µM | SNB-19 13.9 µM | MDA-MB-231 12.8 µM | MDA-N 15.4 µM | HCC 2998 17.4 µM | SF-539 16.6 µM | SNB-75 19 µM | A549 13.6 µM | HL-60 12 µM | DU-145 14.7 µM | M14 13.7 µM | RPMI-8226 17.7 µM | SR 11.2 µM | OVCAR-8 14.5 µM | UO-31 10.1 µM | UACC-257 15.8 µM | OVCAR-5 19.1 µM | SK-MEL-5 11.4 µM | NCI-H23 15 µM | BT-549 11.1 µM | ACHN 14.5 µM | HOP-92 12.6 µM | EKVX 12.2 µM | SF-268 3.59 µM | OVCAR-3 14.2 µM | Hs-578T 16.4 µM | CCRF-CEM 5.36 µM | PC-3 13.2 µM | KM12 11.6 µM | CAKI-1 13.8 µM | MOLT-4 13.9 µM | TK-10 14.8 µM | LOX IMVI 10.4 µM | HCT-116 14.1 µM | SN12C 12.5 µM | SF-295 15.7 µM | MDA-MB-435 13.5 µM | SW-620 16.4 µM | 786-0 14.9 µM
10.2 µM: HCT-15

CCCCCC[C@H]1C(=O)O[C@H](C)[C@H](NC(=O)c2cccc(NC=O)c2OC)C(=O)O[C@@H](C)[C@@H]1OC(=O)C(C)CC.CCCCCC[C@H]1C(=O)O[C@H](C)[C@H](NC(=O)c2cccc(NC=O)c2OC)C(=O)O[C@@H](C)[C@@H]1OC(=O)CC(C)C (stereo partly drawn)
14.7 µM: HCT-15
inactive: U-251 11.7 µM | NCI/ADR-RES 7.59 µM | Malme-3M > 100 µM | SK-MEL-28 > 100 µM | SK-OV-3 15.3 µM | HOP-62 > 100 µM | NCI-H460 4.83 µM | HT-29 8.59 µM | COLO 205 7.62 µM | NCI-H522 12.2 µM | MDA-MB-231 15.8 µM | SK-MEL-2 25.6 µM | UACC-62 8.49 µM | MDA-N 13.2 µM | HCC 2998 89.7 µM | SF-539 29.3 µM | A549 5.9 µM | HL-60 4.53 µM | DU-145 15.7 µM | K562 7.85 µM | M14 39.7 µM | RPMI-8226 8.57 µM | SR 5.82 µM | OVCAR-8 11.6 µM | UO-31 46.8 µM | UACC-257 3.96 µM | OVCAR-5 > 100 µM | SK-MEL-5 5.15 µM | NCI-H23 8.49 µM | T47D 20.8 µM | BT-549 27 µM | NCI-H226 17.6 µM | ACHN 5.83 µM | HOP-92 17.5 µM | A498 12.4 µM | EKVX 7.62 µM | SF-268 26.1 µM | OVCAR-3 6.71 µM | OVCAR-4 5.41 µM | Hs-578T 12.1 µM | CCRF-CEM 6.08 µM | PC-3 6.28 µM | KM12 18.8 µM | CAKI-1 12.9 µM | MOLT-4 6.65 µM | TK-10 16 µM | RXF 393 > 100 µM | MCF7 4.88 µM | LOX IMVI 25.9 µM | HCT-116 10.1 µM | SN12C 29.6 µM | SF-295 14.5 µM | MDA-MB-435 11.6 µM | SW-620 14.5 µM | 786-0 18.6 µM

CCOC(=O)c1cc(C(=O)c2ccccc2)n2nc(-c3ccc(Cl)cc3)ccc12
inactive: U-251 23.1 µM | NCI/ADR-RES 23.4 µM | Malme-3M 19.5 µM | SK-MEL-28 28.4 µM | SK-OV-3 17 µM | HOP-62 19.5 µM | NCI-H460 22.1 µM | HT-29 23.7 µM | COLO 205 50.7 µM | SNB-19 16.4 µM | NCI-H522 18.5 µM | MDA-MB-231 36.2 µM | SK-MEL-2 17.4 µM | UACC-62 17.3 µM | MDA-N 48.8 µM | HCC 2998 23.2 µM | A549 15.4 µM | HL-60 > 100 µM | DU-145 27.6 µM | K562 > 100 µM | M14 31.8 µM | RPMI-8226 91.2 µM | SR 72.6 µM | UO-31 14.1 µM | UACC-257 30.1 µM | OVCAR-5 23.3 µM | SK-MEL-5 17.4 µM | NCI-H23 27 µM | T47D 21.9 µM | BT-549 18.1 µM | NCI-H226 20.4 µM | ACHN 15 µM | IGROV-1 18.7 µM | HOP-92 24.8 µM | A498 16.8 µM | EKVX 21.8 µM | SF-268 13.5 µM | OVCAR-4 16.6 µM | Hs-578T 17.5 µM | CCRF-CEM > 100 µM | PC-3 15.5 µM | KM12 20 µM | CAKI-1 31.8 µM | MOLT-4 > 100 µM | TK-10 19.3 µM | RXF 393 15.2 µM | MCF7 20.9 µM | LOX IMVI 56.4 µM | HCT-116 44.7 µM | SN12C 25.2 µM | SF-295 20.4 µM | MDA-MB-435 33.6 µM | SW-620 93.8 µM | 786-0 15.2 µM
33.9 µM: HCT-15
